Data: ChEMBL document CHEMBL6092154, “Design, synthesis, and evaluation of a novel TRAIL-activated HDAC6 inhibitor for the treatment of pulmonary fibrosis” (Bioorg Med Chem, 2024)

Legend:
[1] = molecular target: Histone deacetylase 1 (Homo sapiens) (UniProt Q13547); assay: Inhibition of HDAC1 (unknown origin) at 1 uM incubated for 30 mins by fluorometric analysis
[2] = molecular target: Histone deacetylase 2 (Homo sapiens, UniProt Q92769); assay: Inhibition of HDAC2 (unknown origin) at 1 uM incubated for 30 mins by fluorometric analysis
[3] = molecular target: Histone deacetylase 3 (Homo sapiens, UniProt O15379); assay: Inhibition of HDAC3 (unknown origin) at 1 uM incubated for 30 mins by fluorometric analysis
[4] = molecular target: T1, Histone deacetylase 8 (Homo sapiens) (UniProt Q9BY41); assay: Inhibition of HDAC8 (unknown origin) at 1 uM incubated for 30 mins by fluorometric analysis
T1 sequence (whole entry): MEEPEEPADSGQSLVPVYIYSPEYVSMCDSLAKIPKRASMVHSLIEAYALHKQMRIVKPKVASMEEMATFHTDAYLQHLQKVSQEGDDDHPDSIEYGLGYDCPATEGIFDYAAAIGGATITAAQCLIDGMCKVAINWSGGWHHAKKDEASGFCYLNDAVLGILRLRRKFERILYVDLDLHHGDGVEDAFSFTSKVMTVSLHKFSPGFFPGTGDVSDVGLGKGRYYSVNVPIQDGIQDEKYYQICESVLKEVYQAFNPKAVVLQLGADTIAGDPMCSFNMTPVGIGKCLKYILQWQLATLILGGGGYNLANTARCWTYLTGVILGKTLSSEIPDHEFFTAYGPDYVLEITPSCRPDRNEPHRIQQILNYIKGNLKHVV

[5] = molecular target: T2, Protein deacetylase HDAC6 (Homo sapiens) (UniProt Q9UBN7); assay: Inhibition of HDAC6 (unknown origin) at 1 uM incubated for 30 mins by fluorometric analysis
T2 sequence (whole entry): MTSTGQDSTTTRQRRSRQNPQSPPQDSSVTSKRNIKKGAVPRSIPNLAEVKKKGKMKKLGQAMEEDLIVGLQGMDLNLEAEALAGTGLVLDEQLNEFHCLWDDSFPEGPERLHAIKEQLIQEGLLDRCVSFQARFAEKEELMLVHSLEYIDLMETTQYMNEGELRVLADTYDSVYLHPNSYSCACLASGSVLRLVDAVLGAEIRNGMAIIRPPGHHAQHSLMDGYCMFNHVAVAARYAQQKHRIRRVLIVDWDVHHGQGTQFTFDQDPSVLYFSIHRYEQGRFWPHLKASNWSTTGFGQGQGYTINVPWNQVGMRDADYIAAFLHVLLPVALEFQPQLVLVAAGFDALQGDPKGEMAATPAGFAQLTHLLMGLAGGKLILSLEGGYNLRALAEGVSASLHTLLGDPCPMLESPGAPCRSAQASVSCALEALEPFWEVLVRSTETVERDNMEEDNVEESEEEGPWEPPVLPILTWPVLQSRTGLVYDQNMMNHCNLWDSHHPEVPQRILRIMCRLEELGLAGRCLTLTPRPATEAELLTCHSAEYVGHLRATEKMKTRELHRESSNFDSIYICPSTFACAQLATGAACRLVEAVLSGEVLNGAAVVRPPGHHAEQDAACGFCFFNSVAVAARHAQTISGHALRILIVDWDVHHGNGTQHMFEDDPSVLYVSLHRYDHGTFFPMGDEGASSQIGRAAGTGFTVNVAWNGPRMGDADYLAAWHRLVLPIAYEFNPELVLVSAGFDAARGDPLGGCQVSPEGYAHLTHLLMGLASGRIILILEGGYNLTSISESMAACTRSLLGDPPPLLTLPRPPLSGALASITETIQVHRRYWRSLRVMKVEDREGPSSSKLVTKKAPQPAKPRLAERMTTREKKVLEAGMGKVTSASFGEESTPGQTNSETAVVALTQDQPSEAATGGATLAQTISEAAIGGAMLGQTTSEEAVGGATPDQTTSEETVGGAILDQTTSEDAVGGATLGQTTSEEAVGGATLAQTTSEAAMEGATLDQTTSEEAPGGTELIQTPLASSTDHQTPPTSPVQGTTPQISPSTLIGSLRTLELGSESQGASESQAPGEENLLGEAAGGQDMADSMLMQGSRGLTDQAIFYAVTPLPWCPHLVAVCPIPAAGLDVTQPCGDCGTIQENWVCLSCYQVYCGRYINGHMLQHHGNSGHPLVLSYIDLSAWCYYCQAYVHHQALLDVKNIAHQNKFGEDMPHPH

[6] = molecular target: T3, Protein deacetylase HDAC6 (Homo sapiens, UniProt Q9UBN7); assay: Inhibition of HDAC6 (unknown origin) incubated for 30 mins by fluorometric analysis
T3 sequence (Q9UBN7 whole entry): T2 sequence (whole entry)

[7] = test system: RPMI-8226; assay: Antiproliferative activity against human RPMI-8226 cells assessed as inhibition of cell growth incubated for 24 to 48 hrs by CCK8 assay; type: functional, cell-based
[8] = test system: NIH3T3; assay: Antiproliferative activity against mouse NIH/3T3 cells assessed as inhibition of cell growth incubated for 24 to 48 hrs by CCK8 assay; type: functional, cell-based
[9] = test system: Fibroblast; assay: Antiproliferative activity against human primary fibroblasts assessed as inhibition of cell growth incubated for 24 to 48 hrs by CCK8 assay; type: functional, cell-based

Chain of Histone deacetylase 3 (O15379 whole entry): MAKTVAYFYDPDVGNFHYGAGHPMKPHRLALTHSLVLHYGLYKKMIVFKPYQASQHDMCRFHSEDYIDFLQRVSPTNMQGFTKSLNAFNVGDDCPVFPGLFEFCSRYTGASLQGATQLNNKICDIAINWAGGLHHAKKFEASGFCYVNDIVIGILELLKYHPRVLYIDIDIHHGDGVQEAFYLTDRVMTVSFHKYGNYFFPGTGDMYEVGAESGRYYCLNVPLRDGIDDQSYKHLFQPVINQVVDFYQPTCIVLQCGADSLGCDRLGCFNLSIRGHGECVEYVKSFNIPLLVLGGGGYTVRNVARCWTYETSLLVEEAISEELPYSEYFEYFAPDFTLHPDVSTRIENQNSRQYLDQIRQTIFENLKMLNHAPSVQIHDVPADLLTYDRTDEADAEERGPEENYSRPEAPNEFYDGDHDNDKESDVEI
Chain of Histone deacetylase 1 (Homo sapiens) (Q13547 whole entry): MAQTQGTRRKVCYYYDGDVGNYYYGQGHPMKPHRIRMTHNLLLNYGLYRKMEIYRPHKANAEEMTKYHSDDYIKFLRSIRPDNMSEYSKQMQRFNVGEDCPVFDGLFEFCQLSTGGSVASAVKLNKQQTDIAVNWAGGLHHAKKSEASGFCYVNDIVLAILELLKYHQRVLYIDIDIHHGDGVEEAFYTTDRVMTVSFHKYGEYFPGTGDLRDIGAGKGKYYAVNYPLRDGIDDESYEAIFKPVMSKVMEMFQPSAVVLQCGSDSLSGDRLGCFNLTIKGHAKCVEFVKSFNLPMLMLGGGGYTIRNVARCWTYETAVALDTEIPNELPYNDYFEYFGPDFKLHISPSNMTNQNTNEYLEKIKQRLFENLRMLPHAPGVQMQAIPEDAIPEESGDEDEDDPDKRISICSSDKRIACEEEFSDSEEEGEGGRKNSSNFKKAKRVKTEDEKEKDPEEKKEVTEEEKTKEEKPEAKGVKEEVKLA
Chain of Histone deacetylase 2 (Q92769 whole entry): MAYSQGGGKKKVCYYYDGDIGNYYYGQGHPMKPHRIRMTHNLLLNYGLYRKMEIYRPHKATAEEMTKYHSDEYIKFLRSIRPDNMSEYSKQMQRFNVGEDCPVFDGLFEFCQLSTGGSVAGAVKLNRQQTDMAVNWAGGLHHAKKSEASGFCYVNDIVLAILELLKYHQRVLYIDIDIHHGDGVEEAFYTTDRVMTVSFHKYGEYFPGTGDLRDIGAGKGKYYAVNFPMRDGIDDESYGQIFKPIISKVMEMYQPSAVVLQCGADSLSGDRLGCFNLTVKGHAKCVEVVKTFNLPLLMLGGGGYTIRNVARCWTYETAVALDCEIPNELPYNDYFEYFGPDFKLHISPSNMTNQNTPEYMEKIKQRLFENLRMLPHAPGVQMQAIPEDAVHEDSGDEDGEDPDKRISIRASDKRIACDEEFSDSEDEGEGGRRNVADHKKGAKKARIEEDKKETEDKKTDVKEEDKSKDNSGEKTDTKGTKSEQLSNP

SMILES	inhibition [1]	inhibition [2]	inhibition [3]	inhibition [4]	inhibition [5]	IC50 [6]	IC50 [7]	IC50 [8]	IC50 [9]
O=C(NO)c1ccc(CN2C(=O)C3=C(CCN(Cc4cccc(C(F)(F)F)c4Cl)C3)N3CCN=C23)cc1	18.3%	60.8%	52.7%	31%	94.1%	60.1 nM	49400 nM	6710 nM	111000 nM
Cc1ccccc1CN1CCC2=C(C1)C(=O)N(Cc1ccc(C(=O)NO)cc1)C1=NCCN12	32.4%	60.5%	51.2%	69.8%	94.7%	48 nM	10700 nM	5900 nM	59200 nM
O=C(NO)c1ccc(CN2C(=O)C3=C(CCN(Cc4cccnc4)C3)N3CCN=C23)cc1	9.3%	46.3%	36.2%	66.4%	95.1%	137 nM	2880 nM	8400 nM	4580 nM
O=C(NO)c1ccc(CN2C(=O)C3=C(CCN(Cc4cccc(Br)c4)C3)N3CCN=C23)cc1	36.4%	63.9%	56.6%	76%	93.6%	31.5 nM	1860 nM	100 nM	47400 nM
Cc1ccc(CN2CCC3=C(C2)C(=O)N(Cc2ccc(C(=O)NO)cc2)C2=NCCN23)cc1	31.8%	58.4%	53.1%	63.6%	91.3%	50.9 nM	13300 nM	1630 nM	136000 nM

Now those with a lower IC50 [7], led by results:

inhibition [1]	inhibition [2]	inhibition [3]	inhibition [4]	inhibition [5]	IC50 [6]	IC50 [7]	SMILES	IC50 [8]	IC50 [9]
47.9%	61.9%	56.4%	75%	97.1%	64.4 nM	1580 nM	O=C(NO)c1ccc(CN2C(=O)C3=C(CCN(Cc4cccc(F)c4)C3)N3CCN=C23)cc1	6510 nM	26700 nM
–	–	–	–	98.5%	–	850 nM	O=C(CCCCCCNC(=O)c1cnc(N(c2ccccc2)c2ccccc2)nc1)NO [RICOLINOSTAT]	3530 nM	35100 nM
27.2%	62.7%	43.8%	48.2%	96.2%	36.8 nM	1080 nM	O=C(NO)c1ccc(CN2C(=O)C3=C(CCN(Cc4ccc(Cl)c(C(F)(F)F)c4)C3)N3CCN=C23)cc1	9880 nM	45300 nM
68.3%	56.8%	51.9%	72.8%	97.2%	65.4 nM	620 nM	O=C(NO)c1ccc(CN2C(=O)C3=C(CCN(Cc4ccccc4)C3)N3CCN=C23)cc1	1000 nM	30600 nM
59.3%	57.6%	52.3%	72.2%	95.4%	104 nM	100 nM	COc1cccc(CN2CCC3=C(C2)C(=O)N(Cc2ccc(C(=O)NO)cc2)C2=NCCN23)c1	11400 nM	55200 nM
44.7%	61.7%	50.6%	74.9%	93.8%	54.8 nM	1060 nM	Cc1cccc(CN2CCC3=C(C2)C(=O)N(Cc2ccc(C(=O)NO)cc2)C2=NCCN23)c1	90 nM	50700 nM
